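Cells were grown in 96-well plates and exposed to each compound for 48 hours at five concentrations; endpoints were interpolated linearly between bracketing concentrations, or set to the highest concentration if not reached. GI50 = concentration required for 50% inhibition of growth. TGI denotes the concentration required for complete inhibition of growth.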
Experiments:
Assay in all cases: NCI tumour cell line growth inhibition, 48 h
KM12 colon = system: KM12 colon
UACC-62 melanoma = system: UACC-62 melanoma
COLO 205 colon = system: COLO 205 colon
NCI-H522 lung = system: NCI-H522 lung
MALME-3M melanoma = system: MALME-3M melanoma
SK-OV-3 ovarian = system: SK-OV-3 ovarian
T-47D breast = system: T-47D breast
SF-539 CNS = system: SF-539 CNS
HT29 colon = system: HT29 colon
OVCAR-8 ovarian = system: OVCAR-8 ovarian

Row | Structure (SMILES) | GI50 (KM12 colon) [nM] | TGI (KM12 colon) [nM] | GI50 (UACC-62 melanoma) [nM] | TGI (UACC-62 melanoma) [nM] | GI50 (COLO 205 colon) [nM] | TGI (COLO 205 colon) [nM] | GI50 (NCI-H522 lung) [nM] | TGI (NCI-H522 lung) [nM] | GI50 (MALME-3M melanoma) [nM] | TGI (MALME-3M melanoma) [nM] | GI50 (SK-OV-3 ovarian) [nM] | TGI (SK-OV-3 ovarian) [nM] | GI50 (T-47D breast) [nM] | TGI (T-47D breast) [nM] | GI50 (SF-539 CNS) [nM] | TGI (SF-539 CNS) [nM] | GI50 (HT29 colon) [nM] | TGI (HT29 colon) [nM] | GI50 (OVCAR-8 ovarian) [nM] | TGI (OVCAR-8 ovarian) [nM]
1 | CC(C)C[C@H](NC(=O)CNC(=O)c1cc(Cl)ccc1Cl)B1OC(=O)CC(CC(=O)O)(C(=O)O)O1 (stereo not given in full) | 105 | 607 | 39.6 | 221 | 86.8 | 22300 | 21.7 | 56 | 32.9 | 412 | 261 | 29600 | 28.5 | 81.9 | 23 | 52.8 | 32.7 | 141 | 66 | 1440
2 | CCc1ccc2c(c1)N(CCO)C1=C(C(=O)OC1)C2c1cccc(Br)c1 (stereo not given) | 336 | 12500 | 518 | 16700 | 358 | 1420 | 173 | 2060 | 2580 | 25600 | 420 | 10100 | 540 | 19600 | 458 | 10100 | 342 | 4360 | 847 | 19600
3 | CO/N=C(\COc1ccc2c(c1)[nH]c1ccccc12)c1ccc(F)cc1 | > 100000 | > 100000 | 95900 | > 100000 | > 100000 | > 100000 | > 100000 | > 100000 | 22800 | > 100000 | 28700 | > 100000 | > 100000 | > 100000 | > 100000 | > 100000 | > 100000 | > 100000 | 10400 | > 100000
4 | O=C1c2cccnc2C(=O)c2c1c(C(=O)NCCCN1CCCCC1)c1ccccn21 | 990 | 10100 | 624 | 2510 | 268 | 928 | 1080 | 3450 | 226 | 684 | 2060 | 6700 | 1590 | 4340 | 1470 | 3070 | 391 | 2920 | 750 | 5580

— PubChem BioAssay (NCI)
